{"source": "patent US10398789B2", "about": "“Methods, compositions and kits for providing a therapeutic treatment” (priority 2010, dated 2019)", "key": {"cancer": {"system": "cancer", "test": "Growth of cancer in treated cancer patients (summary of empirical findings)", "assay_type": "in vivo, human", "conditions": "Cytomel at 5-40 μg/day", "excerpt": "(§1) These clinical findings correlated with the subject being at a state of moderate hypothyroidism, as indicated by the low levels (below normal) of T4 in the subject's blood and above normal values of TSH; • combined treatment of cancer subjects with an anti-thyroid agent, such as methimazole or PTU, in combination with Cytomel®, slowed tumor growth and/or enhanced sensitivity of the tumor cells to chemotherapy and/or radiation therapy."}, "[1]": {"test": "T4 / FT4 levels in treated cancer patients (summary of empirical findings)", "assay_type": "in vivo, human", "conditions": "Cytomel at 5-40 μg/day", "excerpt": "as §1"}, "[2]": {"test": "Free T4 / TSH monitoring under hypothyroid induction therapy, glioblastoma subject (Example 1)", "assay_type": "in vivo, human", "conditions": "Example 1 GBM subject; PTU 600 mg/day in parallel with temozolomide; after about 12 weeks of treatment", "method": "Shortly thereafter carboplatin treatment (7 mg/kg) was initiated along with continuation of the thyroid reduction therapy, using 600 mg/day PTU.\nIn order to achieve hypothyroxinemia, in addition to PTU, 5 μg of triiodotionine (T3) was added 3 times a day in order to inhibit TSH and reduce thyroxine level."}, "[3]": {"system": "grade IV glioblastoma (GBM)", "test": "Brain MRI tumor response, glioblastoma subject (Example 1)", "assay_type": "in vivo, human", "conditions": "Example 1, tumor recurrence about two years later; regimen as labelled"}, "[4]": {"test": "Free T4 level, subject with malignant fibrous histiocytoma (Example 2)", "assay_type": "in vivo, human", "conditions": "methimazole 40 mg/day with palliative radiation (46Gy), after 2 months", "protocol": "The subject was maintained on Cytomel® 5 μg, three times a day and methimazole (reduced to 30 mg once a day)."}, "[5]": {"system": "malignant fibrous histiocytoma (MFH) of the left pulmonary vein", "test": "Tumor size / mass, subject with malignant fibrous histiocytoma (Example 2)", "conditions": "methimazole 40 mg/day with palliative radiation (46Gy), after 2 months"}}}
{"smiles": "N[C@@H](Cc1cc(I)c(Oc2ccc(O)c(I)c2)c(I)c1)C(=O)O", "note": "[Cytomel®, Liothyronine sodium]", "values": [{"measurement": "growth of the cancer", "setting": "cancer", "value": "slows the growth of the cancer"}, {"measurement": "T4 levels", "setting": "[1]", "value": "decrease in T4 levels"}]}
{"smiles": "CCCc1cc(=O)[nH]c(=S)[nH]1", "note": "[PTU, propylthiouracil]", "values": [{"measurement": "T4 levels", "setting": "[2]", "value": "slightly reduced"}]}
{"smiles": "N.N.O=C([O-])C1(C(=O)[O-])CCC1.[Pt+2]", "note": "[carboplatin]", "values": [{"measurement": "tumor response on MRI at recurrence", "setting": "[3]", "value": "no response"}]}
{"smiles": "Cn1cc[nH]c1=S", "note": "[methimazole]", "values": [{"measurement": "free T4 level", "setting": "[4]", "value": "no change"}, {"measurement": "tumor size", "setting": "[5]", "value": "no change"}]}
